Results reported in patent publication US9150546B2, “Triazine derivative and pharmaceutical composition comprising the same” (SHIONOGI & CO., LTD., priority 2009, dated 2015).

molecular target: human P2X3 receptor (Homo sapiens (Human), UniProt P56373); experiment: P2X3 receptor inhibition, ATP-evoked Fluo-3 fluorescence (FDSS 3000); format: cell-based; details: C6BU-1 cell transfected with human P2X3 receptor gene
Sequence (P56373 whole entry): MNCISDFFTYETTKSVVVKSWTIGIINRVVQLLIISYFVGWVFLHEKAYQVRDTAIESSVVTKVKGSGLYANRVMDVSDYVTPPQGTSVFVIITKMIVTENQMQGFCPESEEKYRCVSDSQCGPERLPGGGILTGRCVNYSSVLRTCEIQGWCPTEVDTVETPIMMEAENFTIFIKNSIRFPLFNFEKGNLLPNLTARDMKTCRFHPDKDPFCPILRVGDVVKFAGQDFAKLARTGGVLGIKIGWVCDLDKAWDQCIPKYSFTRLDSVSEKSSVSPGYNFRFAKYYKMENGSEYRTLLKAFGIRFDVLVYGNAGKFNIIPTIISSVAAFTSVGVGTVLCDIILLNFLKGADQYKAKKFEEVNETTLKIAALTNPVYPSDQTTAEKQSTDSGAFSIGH

Compared with COC(=O)CNC(=O)Cn1c(=O)[nH]/c(=N\c2ccc(OC(C)C)c(F)c2)n(Cc2ccc(Cl)cc2)c1=O [I-397], CC(C)Oc1ccc(/N=c2\[nH]c(=O)n(CC(=O)NCC(=O)O)c(=O)n2Cc2ccc(Cl)cc2)cc1F [I-400] is 2.3-fold higher in IC50: 0.019 µM for the first, 0.044 µM for the second.

CC(C)Oc1ccc(/N=c2\[nH]c(=O)n(CC(=O)NC(CO)CO)c(=O)n2Cc2ccc(Cl)cc2)cc1F [I-398] and Cc1ccc(Cn2c(=O)n(CC(=O)NC(CO)CO)c(=O)[nH]/c2=N\c2ccc(OC(C)C)c(F)c2)cc1 [I-414] are the same in IC50: 0.007 µM for the first, 0.007 µM for the second.

Going from COC(=O)C(C)(C)Cn1c(=O)[nH]/c(=N\c2ccc(OC(C)C)c(Cl)c2)n(Cc2ccc(Cl)cc2)c1=O [I-399] to COC(=O)C(C)(C)Cn1c(=O)[nH]/c(=N\c2ccc(OC(C)C)c(F)c2)n(Cc2ccc(Cl)cc2)c1=O [I-403], the IC50 rises from 0.008 µM to 0.015 µM (1.9-fold). The first is the more potent here.

Compared with CC(C)Oc1ccc(/N=c2\[nH]c(=O)n(CC(C)(C)C(=O)O)c(=O)n2Cc2ccc(Cl)cc2)cc1Cl [I-401], CC(C)Oc1ccc(/N=c2\[nH]c(=O)n(CCC(C)(C)C(=O)O)c(=O)n2Cc2ccc(Cl)cc2)cc1Cl [I-421] is 2.7-fold higher in IC50: 0.007 µM for the first, 0.019 µM for the second. The first is the more potent here.

Compared with COC(=O)C(C)(C)Cn1c(=O)[nH]/c(=N\c2ccc(C(=O)C(C)(C)C)cc2)n(Cc2ccc(Cl)cc2)c1=O [I-402], COC(=O)C(C)(C)Cn1c(=O)[nH]/c(=N\c2ccc(O)c(Cl)c2)n(Cc2ccc(Cl)cc2)c1=O [I-426] is 2.1-fold lower in IC50: 0.443 µM for the first, 0.211 µM for the second.

Compared with COC(=O)C(C)(C)Cn1c(=O)[nH]/c(=N\c2ccc(OC(C)C)c(F)c2)n(Cc2ccc(C)cc2)c1=O [I-404], Cc1ccc(Cn2c(=O)n(CC(C)(C)C(=O)O)c(=O)[nH]/c2=N\c2ccc(OC(C)C)c(F)c2)cc1 [I-405] is 2.7-fold higher in IC50: 0.012 µM for the first, 0.032 µM for the second.

CC(C)Oc1ccc(/N=c2\[nH]c(=O)n(CCC(C)(C)C(=O)OCc3ccccc3)c(=O)n2Cc2ccc(Cl)cc2)cc1F [I-406] and CC(C)Oc1ccc(/N=c2\[nH]c(=O)n(CCC(C)(C)C(=O)OCc3ccccc3)c(=O)n2Cc2ccc(Cl)cc2)cc1Cl [I-407] are within 1.5-fold of each other in IC50: 0.03 µM for the first, 0.027 µM for the second.

First: Cc1ccc(Cn2c(=O)n(CC(C)(C)C(=O)O)c(=O)[nH]/c2=N\c2ccc(OC(C)C)c(Cl)c2)cc1 [I-408]
Second: Cc1cc(/N=c2\[nH]c(=O)n(CC(C)(C)C(=O)O)c(=O)n2Cc2ccc(Cl)cc2)ccc1OC(C)C [I-432]
The IC50 of the first is 2.6-fold lower: 0.01 µM for the first, 0.026 µM for the second.

Compared with COC(=O)CCn1c(=O)[nH]/c(=N\c2ccc(OC(C)C)c(F)c2)n(Cc2ccc(C)cc2)c1=O [I-409], COC(=O)Cn1c(=O)[nH]/c(=N\c2ccc(OC(C)C)c(F)c2)n(Cc2ccc(C)cc2)c1=O [I-410] is 3.7-fold higher in IC50: 0.012 µM for the first, 0.044 µM for the second. The first is the more potent here.

Going from Cc1ccc(Cn2c(=O)n(CCC(=O)O)c(=O)[nH]/c2=N\c2ccc(OC(C)C)c(F)c2)cc1 [I-411] to Cc1ccc(Cn2c(=O)n(CC(=O)NCC(=O)O)c(=O)[nH]/c2=N\c2ccc(OC(C)C)c(F)c2)cc1 [I-416], the IC50 falls from 0.061 µM to 0.035 µM (1.7-fold).

Going from Cc1ccc(Cn2c(=O)n(CC(C)(C)C(=O)O)c(=O)[nH]/c2=N\c2ccc(OC(C)C)c(F)c2)cc1F [I-413] to CC(C)Oc1ccc(/N=c2\[nH]c(=O)n(CCC(C)(C)C(=O)O)c(=O)n2Cc2ccc(Cl)cc2)cc1F [I-420], the IC50 falls from 0.099 µM to 0.053 µM (1.9-fold). The second is the more potent here.

Going from Cc1ccc(Cn2c(=O)n(CC(=O)NC(C)(C)C(=O)O)c(=O)[nH]/c2=N\c2ccc(OC(C)C)c(F)c2)cc1 [I-415] to Cc1ccc(Cn2c(=O)n(CC(=O)N[C@H](C)C(=O)O)c(=O)[nH]/c2=N\c2ccc(OC(C)C)c(F)c2)cc1 [I-417], the IC50 falls from 0.314 µM to 0.035 µM (9-fold).

First: Cc1ccc(Cn2c(=O)n(CC(=O)N[C@@H](C)C(=O)O)c(=O)[nH]/c2=N\c2ccc(OC(C)C)c(F)c2)cc1 [I-418]
Second: Cc1ccc(Cn2c(=O)n(CC(=O)NC3(C(=O)O)CC3)c(=O)[nH]/c2=N\c2ccc(OC(C)C)c(F)c2)cc1 [I-419]
The IC50 of the first is 2.8-fold higher: 0.2 µM for the first, 0.071 µM for the second. The second is the more potent here.

First: CCOC(=O)C1(Cn2c(=O)[nH]/c(=N\c3ccc(OC(C)C)c(F)c3)n(Cc3ccc(Cl)cc3)c2=O)CC1 [I-422]
Second: CCOC(=O)C1(Cn2c(=O)[nH]/c(=N\c3ccc(OC(C)C)c(Cl)c3)n(Cc3ccc(Cl)cc3)c2=O)CC1 [I-423]
The IC50 of the first is 1.5-fold higher: 0.006 µM for the first, 0.004 µM for the second.

Compared with CC(C)Oc1ccc(/N=c2\[nH]c(=O)n(CC3(C(=O)O)CC3)c(=O)n2Cc2ccc(Cl)cc2)cc1F [I-424], CC(C)Oc1ccc(/N=c2\[nH]c(=O)n(CC3(C(=O)O)CC3)c(=O)n2Cc2ccc(Cl)cc2)cc1Cl [I-425] is 3.1-fold lower in IC50: 0.049 µM for the first, 0.016 µM for the second. The second is the more potent here.

First: COC(=O)C(C)(C)Cn1c(=O)[nH]/c(=N\c2ccc3c(ccn3C)c2)n(Cc2ccc(Cl)cc2)c1=O [I-427]
Second: COC(=O)C(C)(C)Cn1c(=O)[nH]/c(=N\c2ccc(OC)c(C)c2)n(Cc2ccc(Cl)cc2)c1=O [I-442]
The IC50 of the first is 5.8-fold higher: 0.678 µM for the first, 0.117 µM for the second. The second is the more potent here.

Going from CC(C)(Cn1c(=O)[nH]/c(=N\c2ccc(O)c(Cl)c2)n(Cc2ccc(Cl)cc2)c1=O)C(=O)O [I-429] to CCOc1ccc(/N=c2\[nH]c(=O)n(CC(C)(C)C(=O)O)c(=O)n2Cc2ccc(Cl)cc2)cc1Cl [I-446], the IC50 falls from 0.779 µM to 0.02 µM (39-fold).

Compared with COC(=O)C(C)(C)Cn1c(=O)[nH]/c(=N\c2ccc(OC(C)C)c(C)c2)n(Cc2ccc(Cl)cc2)c1=O [I-431], COc1ccc(/N=c2\[nH]c(=O)n(CC(C)(C)C(=O)O)c(=O)n2Cc2ccc(Cl)cc2)cc1C [I-447] is 70-fold higher in IC50: 0.004 µM for the first, 0.279 µM for the second.

Compared with COc1nc(=O)n(Cc2ccc(Cl)cc2)/c(=N/c2ccc(OC(C)C)c(Cl)c2)[nH]1 [I-433], CNC(=O)Cn1c(=O)[nH]/c(=N\c2ccc(OC(C)C)c(Cl)c2)n(Cc2ccc(Cl)cc2)c1=O [I-436] is 25-fold lower in IC50: 0.199 µM for the first, 0.008 µM for the second.

CC(C)Oc1ccc(/N=c2\[nH]c(=O)n(CC(=O)NCC#N)c(=O)n2Cc2ccc(Cl)cc2)cc1Cl [I-435] and CC(C)Oc1ccc(/N=c2\[nH]c(=O)n(CC(=O)NCCO)c(=O)n2Cc2ccc(Cl)cc2)cc1Cl [I-437] are the same in IC50: 0.006 µM for the first, 0.006 µM for the second.

Going from CC(C)Oc1ccc(/N=c2\[nH]c(=O)n(CC(=O)NCC(N)=O)c(=O)n2Cc2ccc(Cl)cc2)cc1Cl [I-438] to CC(C)Oc1ccc(/N=c2\[nH]c(=O)n(CCC(=O)NCC(N)=O)c(=O)n2Cc2ccc(Cl)cc2)cc1F [I-440], the IC50 rises from 0.005 µM to 0.055 µM (11-fold).

Going from CC(C)Oc1ccc(/N=c2\[nH]c(=O)n(CCC(=O)NCC#N)c(=O)n2Cc2ccc(Cl)cc2)cc1F [I-439] to COC(=O)[C@H](C)Cn1c(=O)[nH]/c(=N\c2ccc(OC(C)C)c(F)c2)n(Cc2ccc(Cl)cc2)c1=O [I-452], the IC50 falls from 0.018 µM to 0.003 µM (6-fold).

Going from CCOc1ccc(/N=c2\[nH]c(=O)n(CC(C)(C)C(=O)OC)c(=O)n2Cc2ccc(Cl)cc2)cc1Cl [I-441] to COC(=O)C(C)(C)Cn1c(=O)[nH]/c(=N\c2cccc(OC(F)F)c2)n(Cc2ccc(Cl)cc2)c1=O [I-443], the IC50 rises from 0.011 µM to 0.207 µM (19-fold).

Compared with COC(=O)c1ccc(Cn2c(=O)[nH]/c(=N\c3ccc(OC(C)C)c(F)c3)n(Cc3ccc(Cl)cc3)c2=O)cc1 [I-444], CC(C)Oc1ccc(/N=c2\[nH]c(=O)n(Cc3ccc(C(=O)O)cc3)c(=O)n2Cc2ccc(Cl)cc2)cc1F [I-445] is 2.1-fold lower in IC50: 0.017 µM for the first, 0.008 µM for the second.

Going from CC(C)(Cn1c(=O)[nH]/c(=N\c2cccc(OC(F)F)c2)n(Cc2ccc(Cl)cc2)c1=O)C(=O)O [I-448] to CC(C)Oc1ccc(/N=c2\[nH]c(=O)n(Cc3cccc(C(=O)O)c3)c(=O)n2Cc2ccc(Cl)cc2)cc1F [I-451], the IC50 falls from 0.388 µM to 0.016 µM (24-fold).

Compared with COC(=O)c1cccc(Cn2c(=O)[nH]/c(=N\c3ccc(OC(C)C)c(F)c3)n(Cc3ccc(Cl)cc3)c2=O)c1 [I-450], COC(=O)[C@@H](C)Cn1c(=O)[nH]/c(=N\c2ccc(OC(C)C)c(F)c2)n(Cc2ccc(Cl)cc2)c1=O [I-453] is 7.2-fold lower in IC50: 0.036 µM for the first, 0.005 µM for the second.
